Measurements as given in patent US5756480A, “Treatment of hyperandrogenic conditions” (Merck & Co., Inc., priority 1996, dated 1998).
“Also recorded” adds a separate entry of the source. Read-outs that look alike come from different tables or passages of the source.

Key:
[1] = system: type 1 5α-reductase; assay: Kinetic constants of type 1 5α-reductase; type: biochemical, human
Source text: (§1) Ethanol is included at 1% final concentration as the vehicle for introduction of inhibitors. […] A unit of enzyme activity was defined as 1 pmol product/min, and is equal to 444 fmol enzyme under these conditions.
(§2) The molecular weight was taken to be about 30,000 in estimating enzyme purity.

[2] = molecular target: T1, type 2 5α-reductase (Homo sapiens, UniProt P31213); assay: Progress curves of DHT formation, slow-binding inhibition of baculovirus-expressed type 2 5α-reductase; type: biochemical
T1 construct: made in house
T1 sequence (P31213 1-254): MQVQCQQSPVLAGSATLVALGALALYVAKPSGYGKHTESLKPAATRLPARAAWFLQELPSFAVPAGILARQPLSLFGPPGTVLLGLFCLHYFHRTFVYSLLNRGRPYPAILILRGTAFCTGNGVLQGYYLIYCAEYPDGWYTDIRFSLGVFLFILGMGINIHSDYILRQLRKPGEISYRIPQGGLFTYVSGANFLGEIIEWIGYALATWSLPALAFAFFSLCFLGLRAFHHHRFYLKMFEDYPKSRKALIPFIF
Experimental: Ethanol is included at 1% final concentration as the vehicle for introduction of inhibitors. The rate of production of [^3 H]dihydrotestosterone is approximately constant for up to 2 hours or 10% consumption of substrate. A unit of enzyme activity was defined as 1 pmol product/min, and is equal to 444 fmol enzyme under these conditions.
After quenching the reactions with an equal volume, or more, of water containing 1% trifluoroacetic acid, the [^3 H]dihydrotestosterone is isolated by direct injection onto a reverse phase C-18 column (Vydac, 4.6×250 mm, 300 Å, 5 micron), which is run in an isocratic system of 40% water (containing 0.1% trifluoroacetic acid) and 60% methanol at 1 mL/min. When tissue extracts are the source of enzyme, the quenched reactions are clarified by centrifugation at 10,000×g before analysis. Retention times are ~13 min for testosterone and ~20 min for dihydrotestosterone. The effluent containing the [^3 H]dihydrotestosterone peak (6 mL) is collected in a liquid scintillation vial and counted with AQUASOL 2 (14 mL, New England Nuclear) with an efficiency of 0.309. The assay is completely automated using a SUN SPARKSTATION 2 computer interfaced to a ZYMARK robot and ancillary equipment.
The native human enzyme was from prostate (type 2) or scalp (type 1) tissue, and the recombinant human enzymes were produced by the baculovirus expression system of Andersson, et al. (Chan, H. K., Geissler, W. M., Andersson, S., Sex Hormones and Antihormones in Endocrine Dependent Pathology: Basic and Clinical Aspects, M. Motta and M. Serio, eds., Elsevier Science 1994). […] Enzyme concentrations were determined by titration with finasteride, or [^3 H]finasteride, or from catalytic activity using kcat and Km values.
Alternatively, fractions may be collected and the samples counted on a scintillation counter. […] The time courses were fit to an integrated first-order rate equation (Equation 1), where A is product concentration, vo is the initial velocity, vs is the infinite-time velocity, and kobs is the first-order rate constant for progression of the enzyme between the two equilibrium states. […] (Ki=koff /kon).
A=vs t+(vo -vs)(1-e-^k obs^t)/kobs +Ao Equation

[3] = system: human skin (type 1) isozyme; conditions: cited from earlier work
[4] = system: human prostate (type 2) isozyme; conditions: cited from earlier work
[5] = system: dihydrotestosterone levels; conditions: circulating finasteride concentrations comparable to Ki = 26 nM; result in words; cited from earlier work
[6] = system: human prostate (type 2) 5α-reductase; conditions: result in words, cited from earlier work
[7] = substrate: C[C@]12CC[C@H]3[C@@H](CCC4=CC(=O)CC[C@@]43C)[C@@H]1CC[C@@H]2O; assay: purified protein, by the assay type; conditions: other: baculovirus-expressed type 2 enzyme, pH 7.2, 37° C.
Source text: as §1, §2

C[C@]12CC[C@H]3[C@@H](CCC4=CC(=O)CC[C@@]43C)[C@@H]1CC[C@@H]2O [testosterone]
Km [1]: 7 µM
kcat for the type 1 enzyme [1]: 1.4 s⁻¹

CCN(CC)C(=O)[C@H]1CC[C@H]2[C@@H]3CC[C@H]4OC(=O)C=C[C@]4(C)[C@H]3CC[C@]12C [L-682,299, 17β-(N-diethyl)carbamoyl-4-oxa-5α-androst-1-en-3-one]
Ki [2]: < 0.1 nM
velocity at infinite-time (vs) ([2]; 20 nM inhibitor, pH 7.2, 37° C.): essentially zero
inhibition over time ([2]; 20 nM inhibitor, pH 7.2, 37° C., result in words): the inhibition developed slowly with time and resulted in total inhibition of the enzyme
kon at 0.02 µM ([2]; pH 7.2, read-out: second-order rate constant for binding to the type 2 isozyme): 56000 M⁻¹ s⁻¹

CC(C)(C)NC(=O)[C@H]1CC[C@H]2[C@@H]3CC[C@H]4NC(=O)C=C[C@]4(C)[C@H]3CC[C@]12C [Finasteride, 17β-(N-tert-butylcarbamoyl)-3-oxo-4-aza-5α-androst-1-ene-3-one]
inhibition of human skin (type 1) isozyme ([3]; result in words, listed as finasteride): relatively insensitive to finasteride; also recorded: not a significant inhibitor of human skin (type 1) isozyme at doses employed in the treatment of BPH
second-order rate constant for formation of the complex ([3]; type 1, Tian et al. 1994): 4000 M⁻¹ s⁻¹
rate constant for binding to the human prostate isozyme ([4]; Faller et al. 1993): 270000 M⁻¹ s⁻¹
binding behavior / reversibility ([4]; human prostate (type 2) isozyme, result in words): slow-binding inhibitors; also recorded: essentially irreversible enzyme-inhibitor complex
Ki ([4]; printed as Ki <<1 nM, essentially irreversible complex, Faller et al. 1993): < 1 nM
reduction of dihydrotestosterone levels [5]: reduced levels of dihydrotestosterone to values approaching those found in individuals genetically deficient in the prostate isozyme
inhibition of human prostate (type 2) enzyme [6]: potent inhibitor of the human prostate enzyme
inhibition of human prostate (type 2) enzyme ([6]; listed as finasteride): potently inhibited by finasteride

B1: type 2 5α-reductase (Homo sapiens) (protein)
chain: T1 sequence (P31213 1-254)
Km [7]: 0.0246 ± 0.0007 µM
kcat [7]: 0.075 ± 0.006 s⁻¹
kcat/Km [7]: 2.99±0.32×10^6 M^-1 s^-1
